For 34 compounds, IC50 results are on record in patent US9233979B2, “Compounds that are ERK inhibitors” (Merck Sharp & Dohme Corp., priority 2012, dated 2016).

The structures appear in SMILES notation. pIC50: −log10 of the molar value.

Chain of phosphorylated active hERK2 enzyme (P28482 whole entry): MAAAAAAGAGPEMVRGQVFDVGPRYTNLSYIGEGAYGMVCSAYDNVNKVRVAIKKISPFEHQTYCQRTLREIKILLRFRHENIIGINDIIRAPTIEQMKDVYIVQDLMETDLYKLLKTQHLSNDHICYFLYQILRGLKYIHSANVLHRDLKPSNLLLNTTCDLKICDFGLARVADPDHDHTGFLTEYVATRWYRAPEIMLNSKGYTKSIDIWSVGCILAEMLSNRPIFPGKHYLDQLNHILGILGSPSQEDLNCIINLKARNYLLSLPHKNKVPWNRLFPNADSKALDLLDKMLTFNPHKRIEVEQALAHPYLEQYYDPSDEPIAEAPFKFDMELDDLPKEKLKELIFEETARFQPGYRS

For one assay, the target named is phosphorylated active hERK2 enzyme (Homo sapiens (Human), UniProt P28482). In words: Active Human ERK2 (hERK2) Activity Assay (IMAP-FP). The assay is classed as biochemical. The note with it: Table 5, 0.5 nM hERK2, 30 μM ATP, 10 point titration, read-out: AERK2 IC50. The procedure, abridged:
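IMAP fluorescence-polarization kinase assay: 0.5 nM activated hERK2 with 900 nM unlabeled plus 80 nM labeled peptide and 30 μM ATP, reacted 60 min. Quenched with IMAP beads in binding buffer with 24 mM NaCl; FP read after 60 min equilibration.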
With `COC[C@@H](NC(=O)Nc1cc2[nH]nc(N3CCOCC3C)c2cn1)c1ccccc1` (stereo partly drawn) [Example 27, 1-[(1S)-2-methoxy-1-phenylethyl]-3-[3-(3-methylmorpholin-4-yl)-1H-pyrazolo[4,3-c]pyridin-6-yl]urea], the negative-log IC50 (pIC50) is 8.92.
As to `CO[C@H](C)CNC(=O)Nc1cc2[nH]nc(N3CCOCC3)c2cn1` [Example 16, 1-[(2R)-2-methoxypropyl]-3-(3-morpholin-4-yl-1H-pyrazolo[4,3-c]pyridin-6-yl)urea], the pIC50 is 7.69.
Consider `C[C@@H](NC(=O)Nc1cc2[nH]nc(NS(=O)(=O)CC3CC3)c2cn1)c1ccccc1` [Example 55, 1-cyclopropyl-N-[6-({[(1R)-1-phenylethyl]carbamoyl}amino)-1H-pyrazolo[4,3-c]pyridin-3-yl]methanesulfonamide], for which the negative logarithm of the IC50 (pIC50) was 7.05.

The same assay, now with this note: Table 6, 0.5 nM hERK2, 30 μM ATP, 10 point titration, read-out: AERK2 IC50.
With `COC[C@@H](NC(=O)Nc1cc2[nH]nc(Nc3ccccc3OC)c2cn1)c1ccccc1` [Example 122, 1-{3-[(2-methoxyphenyl)-amino]-1H-pyrazolo[4,3-c]pyridin-6-yl}-3-[(1S)-2-methoxy-1-phenylethyl]urea], the negative-log IC50 (pIC50) was 8.08.
On to `Nc1n[nH]c2c(F)c(NC(=O)N[C@H](COC(F)F)c3ccccc3)ncc12` [Example 362, 1-(3-amino-7-fluoro-1H-pyrazolo[4,3-c]-pyridin-6-yl)-3-[(1S)-2-(difluoromethoxy)-1-phenylethyl]urea], for which the pIC50 was 8.89.
With `C[C@@H](NC(=O)Nc1cc2[nH]nc(NC(=O)N3CC(C)(O)C3)c2cn1)c1ccccc1` [Example 134, 3-hydroxy-3-methyl-N-[6-({[(1R)-1-phenylethyl]-carbamoyl}-amino)-1H-pyrazolo[4,3-c]pyridin-3-yl]-azetidine-1-carboxamide], the pIC50 was 8.07.
In the case of `CCNc1n[nH]c2cc(NC(=O)NC(c3ccc(F)cc3)C(C)(C)OC)ncc12` (stereo not shown) [Example 430, 1-[3-(ethylamino)-1H-pyrazolo[4,3-c]pyridin-6-yl]-3-[1-(4-fluorophenyl)-2-methoxy-2-methylpropyl]urea], the pIC50 is 9.22.
As to `C[C@@H](NC(=O)Nc1cc2[nH]nc(N(CC3CC3)CC3CC3)c2cn1)c1ccccc1` [Example 160, 1-{3-[bis(cyclopropyl-methyl)amino]-1H-pyrazolo[4,3-c]-pyridin-6-yl}-3-[(1R)-1-phenylethyl]urea], the pIC50 is 6.55.
As for `C[C@@H](NC(=O)Nc1cc2[nH]nc(Nc3ccccc3)c2cn1)c1ccccc1` [Example 379, 1-[3-(phenyl-amino)-1H-pyrazolo[4,3-c]-pyridin-6-yl]-3-[(1R)-1-phenylethyl]urea], the pIC50 is 6.90.
As to `Nc1n[nH]c2cc(NC(=O)N[C@H](c3ccccc3)[C@@H]3CCCO3)ncc12` [Example 155, 1-(3-amino-1H-pyrazolo[4,3-c]pyridin-6-yl)-3-{(R)-phenyl[(2S)-tetrahydrofuran-2-yl]methyl}urea], the pIC50 was 6.31.
For the compound `Cc1nc(NC(=O)N[C@H](C)c2ccccc2)cc2[nH]nc(N3CCC[C@H]3C(=O)O)c12` [Example 332, 1-[4-methyl-6-({[(1R)-1-phenyl-ethyl]carbamoyl}-amino)-1H-pyrazolo[4,3-c]-pyridin-3-yl]proline], the pIC50 is 7.13.
The same measure, in the same setting: under `C[C@@H](NC(=O)Nc1cc2[nH]nc(NC(=O)c3cccnc3)c2cn1)c1ccccc1` [Example 211, N-[6-({[(1R)-1-phenylethyl]-carbamoyl}amino)-1H-pyrazolo[4,3-c]pyridin-3-yl]-pyridine-3-carboxamide] stands 8.51; under `C[C@@H](O)[C@@H](NC(=O)Nc1cc2[nH]nc(N3CCc4scnc4C3)c2cn1)c1ccccc1` [Example 64, 1-[3-(6,7-dihydro[1,3]thiazolo-[4,5-c]pyridin-5(4H)-yl)-1H-pyrazolo[4,3-c]pyridin-6-yl]-3-[(1S,2R)-2-hydroxy-1-phenylpropyl]urea], 8.25.
With `C[C@@H](NC(=O)Nc1cc2[nH]nc(N[C@@H]3CCOC3)c2cn1)c1ccccc1` [Example 74, 1-[(1R)-1-phenylethyl]-3-{3-[(3R)-tetrahydro-furan-3-ylamino]-1H-pyrazolo[4,3-c]-pyridin-6-yl}urea], the pIC50 is 8.77.
Same read-out and setting: with `CCNc1n[nH]c2cc(NC(=O)NC3COc4ccccc4C3)ncc12` (stereo not shown) [Example 233, 1-(3,4-dihydro-2H-chromen-3-yl)-3-[3-(ethylamino)-1H-pyrazolo[4,3-c]pyridin-6-yl]urea] the figure was 7.55; with `COC[C@@H](NC(=O)Nc1cc2[nH]nc(N(CC3CCC3)CC3CCC3)c2cn1)c1ccccc1` [Example 157, 1-{3-[bis(cyclobutyl-methyl)amino]-1H-pyrazolo[4,3-c]pyridin-6-yl}-3-[(1S)-2-methoxy-1-phenylethyl]urea], 7.03; with `C[C@@H](NC(=O)Nc1cc2[nH]nc(NC(=O)c3ccncc3)c2cn1)c1ccccc1` [Example 214, N-[6-({[(1R)-1-phenylethyl]-carbamoyl}amino)-1H-pyrazolo[4,3-c]pyridin-3-yl]-pyridine-4-carboxamide], 8.54.
As to `COC[C@@H](NC(=O)Nc1cc2[nH]nc(N[C@@H]3CCOC3)c2cn1)c1ccccc1` [Example 75, 1-[(1S)-2-methoxy-1-phenylethyl]-3-{3-[(3R)-tetrahydro-furan-3-ylamino]-1H-pyrazolo[4,3-c]-pyridin-6-yl}urea], the pIC50 is 9.10.
Still for that read-out and setting: with `C[C@@H](NC(=O)Nc1cc2[nH]nc(N3CC4CC3CO4)c2cn1)c1ccccc1` (stereo partly drawn) [Example 449, 1-[3-(2-oxa-5-azabicyclo[2.2.1]-hept-5-yl)-1H-pyrazolo[4,3-c]-pyridin-6-yl]-3-[(1R)-1-phenylethyl]urea] the figure was 8.22.
`C[C@@H](NC(=O)Nc1cc2[nH]nc(N3CC(C#N)C3)c2cn1)c1ccccc1` [Example 93, 1-[3-(3-cyanoazetidin-1-yl)-1H-pyrazolo[4,3-c]-pyridin-6-yl]-3-[(1R)-1-phenylethyl]urea]: the pIC50 was 8.00.
Still for that read-out and setting: with `CNc1n[nH]c2cc(NC(=O)N[C@H](c3ccccc3)[C@H]3CCCO3)ncc12` [Example 147, 1-(3-(methylamino)-1H-pyrazolo[4,3-c]pyridin-6-yl)-3-((R)-phenyl((R)-tetrahydrofuran-2-yl)methyl)urea] the figure was 6.61; with `C[C@@H](NC(=O)Nc1cc2[nH]nc(NC(=O)Oc3ccccc3)c2cn1)c1ccccc1` [Example 222, phenyl[6-({[(1R)-1-phenylethyl]-carbamoyl}amino)-1H-pyrazolo[4,3-c]pyridin-3-yl]-carbamate], 8.44; with `Nc1n[nH]c2cc(NC(=O)NCc3ccc(F)c(Cl)c3)ncc12` [Example 264, 1-(3-amino-1H-pyrazolo[4,3-c]-pyridin-6-yl)-3-(3-chloro-4-fluorobenzyl)urea], 6.03.
Take `COC[C@@H](NC(=O)Nc1cc2[nH]nc(NC3CCOC3)c2cn1)c1ccccc1` (stereo partly drawn) [Example 158, 1-[(1S)-2-methoxy-1-phenylethyl]-3-[3-(tetrahydro-furan-3-ylamino)-1H-pyrazolo[4,3-c]pyridin-6-yl]urea]: the pIC50 is 8.96.
With `C[C@@H](O)[C@@H](NC(=O)Nc1cc2[nH]nc(N3CCc4ncsc4C3)c2cn1)c1ccccc1` [Example 387, 1-[3-(6,7-dihydro[1,3]-thiazolo[5,4-c]-pyridin-5(4H)-yl)-1H-pyrazolo[4,3-c]pyridin-6-yl]-3-[(1S,2R)-2-hydroxy-1-phenylpropyl]urea], the pIC50 was 9.30.
Consider `COC(=O)Nc1n[nH]c2cc(NC(=O)NCc3ccccc3OC)ncc12` [Example 297, methyl (6-{[(2-methoxybenzyl)-carbamoyl]amino}-1H-pyrazolo[4,3-c]pyridin-3-yl)-carbamate], for which the pIC50 was 8.70.
On to `O=C(Nc1cc2[nH]nc(N3CCOCC3)c2cn1)N[C@H](COC(F)F)c1ccccc1` [Example 440, 1-[(1S)-2-(difluoromethoxy)-1-phenylethyl]-3-(3-morpholin-4-yl-1H-pyrazolo[4,3-c]pyridin-6-yl)urea], for which the pIC50 was 9.40.
As for `COC(=O)Nc1n[nH]c2cc(NC(=O)NCc3c(F)cccc3OC)ncc12` [Example 298, methyl (6-{[(2-fluoro-6-methoxy-benzyl)carbamoyl]-amino}-1H-pyrazolo[4,3-c]-pyridin-3-yl)-carbamate], the pIC50 is 8.92.
Still for that read-out and setting: with `O=C(Nc1cc2[nH]nc(N3CC4CC3CO4)c2cn1)N[C@H](CO)c1ccccc1` (stereo partly drawn) [Example 450, 1-[(1S)-2-hydroxy-1-phenylethyl]-3-[3-(2-oxa-5-azabicyclo[2.2.1]-hept-5-yl)-1H-pyrazolo[4,3-c]-pyridin-6-yl]urea] the figure was 8.37; with `C[C@@H](NC(=O)Nc1cc2[nH]nc(Nc3ccc(C#N)nc3)c2cn1)c1ccccc1` [Example 381, 1-{3-[(6-cyanopyridin-3-yl)amino]-1H-pyrazolo[4,3-c]-pyridin-6-yl}-3-[(1R)-1-phenylethyl]urea], 6.44.
The same measure, in the same setting: under `CCNc1n[nH]c2cc(NC(=O)NCc3c(F)cccc3OC)ncc12` [Example 242, 1-[3-(ethylamino)-1H-pyrazolo[4,3-c]pyridin-6-yl]-3-(2-fluoro-6-methoxybenzyl)-urea] stands 8.62.
On to `COC[C@H](NC(=O)Nc1ncc2c(NC(C)C)n[nH]c2c1F)c1ccccc1` [Example 323, 1-{7-fluoro-3-[(1-methylethyl)amino]-1H-pyrazolo[4,3-c]pyridin-6-yl}-3-[(1R)-2-methoxy-1-phenylethyl]urea], for which the pIC50 is 8.39.
Consider `CCNc1n[nH]c2cc(NC(=O)N[C@@H](c3ccccc3)C(C)(C)O)ncc12` [Example 420, 1-[3-(ethylamino)-1H-pyrazolo[4,3-c]pyridin-6-yl]-3-[(1S)-2-hydroxy-2-methyl-1-phenylpropyl]urea], for which the pIC50 was 8.68.
Consider `CCNc1n[nH]c2cc(NC(=O)NCc3cccnc3OCC)ncc12` [Example 238, 1-[(2-ethoxy-pyridin-3-yl)-methyl]-3-[3-(ethylamino)-1H-pyrazolo[4,3-c]pyridin-6-yl]urea], for which the pIC50 was 8.02.
